Publication PMC7486383, “Protrudin and PDZD8 contribute to neuronal integrity by promoting lipid extraction required for endosome maturation” (Nature Communications, 2020)
Counter-ions that a name gives are not always drawn.

Tests used:
GST-PDZD8(ΔTM) = target: T1, GST-PDZD8(ΔTM) (Mus musculus, UniProt B9EJ80); test: liposome-FRET lipid extraction assay; assay type: binding; details: labelled compound; donor liposomes PC/PE/rhodamine-PE; 25 °C
T1 sequence (B9EJ80 25-1147 limits assumed): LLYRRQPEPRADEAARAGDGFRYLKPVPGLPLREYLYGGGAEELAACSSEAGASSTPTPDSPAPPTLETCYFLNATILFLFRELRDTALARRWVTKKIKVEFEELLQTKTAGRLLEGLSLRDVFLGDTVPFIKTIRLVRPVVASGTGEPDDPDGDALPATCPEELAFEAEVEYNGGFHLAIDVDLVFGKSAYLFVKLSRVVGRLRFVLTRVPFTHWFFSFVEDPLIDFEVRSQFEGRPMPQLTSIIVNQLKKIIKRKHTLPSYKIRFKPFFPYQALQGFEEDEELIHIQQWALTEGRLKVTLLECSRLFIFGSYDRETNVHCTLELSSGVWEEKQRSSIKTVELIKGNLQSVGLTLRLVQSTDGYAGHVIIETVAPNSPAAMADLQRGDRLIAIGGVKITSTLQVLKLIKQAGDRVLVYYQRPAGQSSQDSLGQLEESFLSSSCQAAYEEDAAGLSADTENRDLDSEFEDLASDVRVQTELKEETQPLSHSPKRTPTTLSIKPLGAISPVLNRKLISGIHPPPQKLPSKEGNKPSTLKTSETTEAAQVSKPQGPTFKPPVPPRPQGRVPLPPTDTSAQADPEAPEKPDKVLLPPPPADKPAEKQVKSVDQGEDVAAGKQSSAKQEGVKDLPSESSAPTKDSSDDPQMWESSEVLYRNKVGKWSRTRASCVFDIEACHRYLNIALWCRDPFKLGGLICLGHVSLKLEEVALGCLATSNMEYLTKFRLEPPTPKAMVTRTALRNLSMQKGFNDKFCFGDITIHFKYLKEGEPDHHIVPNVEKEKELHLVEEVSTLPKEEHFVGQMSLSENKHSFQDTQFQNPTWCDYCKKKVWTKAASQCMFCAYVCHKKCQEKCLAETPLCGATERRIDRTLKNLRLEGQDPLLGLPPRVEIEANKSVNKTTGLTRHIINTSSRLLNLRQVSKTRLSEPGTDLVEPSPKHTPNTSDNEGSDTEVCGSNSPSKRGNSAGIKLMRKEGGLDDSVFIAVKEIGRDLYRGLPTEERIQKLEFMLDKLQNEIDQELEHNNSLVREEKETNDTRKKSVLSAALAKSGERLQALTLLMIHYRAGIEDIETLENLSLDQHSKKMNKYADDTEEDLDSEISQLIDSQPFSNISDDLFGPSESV

PDZD8(SMP-PDZ) = target: T2, PDZD8(SMP-PDZ) (Mus musculus, UniProt B9EJ80); test: liposome-FRET lipid extraction assay; assay type: binding; details: labelled compound; donor liposomes PC/PE/rhodamine-PE; 25 °C
T2 sequence (B9EJ80 87-448 limits assumed): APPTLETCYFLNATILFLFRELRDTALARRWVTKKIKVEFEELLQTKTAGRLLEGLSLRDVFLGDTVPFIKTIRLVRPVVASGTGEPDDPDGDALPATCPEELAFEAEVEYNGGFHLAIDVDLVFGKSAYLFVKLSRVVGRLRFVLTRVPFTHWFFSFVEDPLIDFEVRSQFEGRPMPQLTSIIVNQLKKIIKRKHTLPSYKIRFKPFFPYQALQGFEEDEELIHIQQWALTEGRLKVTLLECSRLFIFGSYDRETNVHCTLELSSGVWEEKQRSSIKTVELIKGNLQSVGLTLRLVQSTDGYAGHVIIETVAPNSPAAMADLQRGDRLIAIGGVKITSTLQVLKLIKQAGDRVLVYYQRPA

Row | Structure (SMILES) | initial velocity of lipid extraction (GST-PDZD8(ΔTM)) | initial velocity of lipid extraction (PDZD8(SMP-PDZ))
1 | CCCCCCCCCCCCC/C=C/[C@@H](O)[C@H](CO)NC(=O)CCCCCNc1ccc([N+](=O)[O-])c2nonc12 [C6-NBD-ceramide, N-{6-[(7-nitro-2-1,3-benzoxadiazol-4-yl)amino]hexanoyl}-D-erythro-sphingosine] | PDZD8(ΔTM) also showed high extraction activity for ceramide | 
2 | CCCCCCCCCCCCCCCC(=O)OC[C@H](COP(=O)(O)OC[C@H](N)C(=O)O)OC(=O)CCCCCCCCCCCNc1ccc([N+](=O)[O-])c2nonc12 [NBD-PS, 1-palmitoyl-2-{12-[(7-nitro-2-1,3-benzoxadiazol-4-yl)amino]dodecanoyl}-sn-glycero-3-phosphoserine (ammonium salt)] | with the initial velocity of lipid extraction being greatest for PS | The activity of PDZD8(SMP-PDZ) was also about half that of PDZD8(ΔTM)
